# Test results from the supplement of paper PMC6470124.
# Tests used:
# [1] = absolute recovery over vacuum-assisted evaporative concentration; higher = better recovery; conditions: enrichment method: VEC
# Procedure, shortened: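 After spiking with standards before concentration, after concentration or not at all, at 1000 ng/L for wastewater or 200 ng/L for nanopure and surface water with class- and compound-specific adjustments, samples of 6 mL influent, 15 mL effluent and 60 mL surface or nanopure water were evaporated at 55 °C and 20 mbar to about 0.3 mL. They were brought to 0.4 mL, centrifuged, given internal standards and analysed by LC-HRMS/MS. Absolute recovery, (response ratio pre − unspiked)/(post − unspiked) × 100, used averages of ≥ 2 replicates.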
# [2] = absolute recovery over mixed-bed multilayer solid-phase extraction; higher = better recovery; conditions: enrichment method: SPE
# Procedure, shortened: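 Wastewater (100–250 mL, pH 6.5, glass-fibre filtered) and unfiltered nanopure water (1000 mL) were extracted on a three-layer mixed-bed cartridge, with standards spiked before extraction, after it, or not at all at 1000 ng/L and 200 ng/L respectively, apart from some classes. Internal standards were then added for liquid chromatography with high-resolution tandem mass spectrometry in both ionisation modes. Absolute recovery compares background-corrected response ratios of pre- and post-spiked samples across at least two replicates.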
# [3] = LC retention time (Atlantis T3, 5-95% MeOH gradient, 0.1% formic acid); higher = more retained / less polar
# Procedure, shortened: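 Retention times were recorded for reference standards on a polar reversed-phase C18 column. The standards were of purity ≥ 95%, and the Atlantis T3 column (3 × 150 mm, 3 μm) was run at 0.3 mL/min with a gradient from 5 to 95% methanol over 17.5 min, both water and methanol containing 0.1% formic acid. Detection used high-resolution tandem mass spectrometry on a QExactive Plus, with positive and negative electrospray in separate runs, and peaks were integrated in TraceFinder (5 ppm tolerance, at least three points per peak) before being checked by hand.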
SMILES,absolute recovery ([1]; wastewater effluent) [%],absolute recovery ([1]; wastewater influent) [%],absolute recovery ([2]; nanopure water) [%],absolute recovery ([2]; surface water) [%],absolute recovery ([2]; wastewater effluent) [%],absolute recovery ([2]; wastewater influent) [%],LC retention time [3] [min]
O=C1C(Cl)C(CCl)CN1c1cccc(C(F)(F)F)c1 (stereo not given) [Flurochloridon],92,60.5,98.1,104,106,98,19.9
NS(=O)(=O)Cc1noc2ccccc12 [Zonisamide],103,101,84.8,88.8,88.4,107,13.1
Cc1cc(=O)n(-c2ccccc2)n1C [Phenazon (=Antipyrin)],106,100,83.8,93.4,91.4,95.5,13.3
Cc1ccc2[nH]nnc2c1 [5-Methyl-Benzotriazol],102,100,95.7,–,–,97.5,15.4
Nc1nnc(-c2cccc(Cl)c2Cl)c(N)n1 [Lamotrigin],104,97.7,96.2,96.6,91.1,96.7,12.8
CSc1nc(NC(C)C)nc(NC(C)C)n1 [Prometryn G],94.8,94.8,97.7,92.8,92.4,94.1,18.2
CCOC(=O)C1(c2ccccc2)CCC=CC1[NH+](C)C (stereo not given) [Tilidine],70,63.5,73.9,78.8,79.5,83.5,12.6
CS(=O)(=O)c1cc(C(F)(F)F)ccc1C(=O)c1cnoc1C1CC1 [Isoxaflutole],74.8,–,19.2,21.8,22.8,35.1,18.3
CN1C(=O)CC(C)(c2ccccc2)C1=O (stereo not given) [Methsuximide],99,85.5,99.2,84.5,89.9,89.6,16.6
COC(=O)Nc1nc2ccccc2[nH]1 [Carbendazim],105,103,96.1,94.3,93.2,94.1,10.8
C[NH+](C)CCCC1(c2ccc(F)cc2)OCc2cc(C#N)ccc21 (stereo not given) [Citalopram],104,100,94.1,96.1,92.4,93.9,14.5
N#CN=C1SCCN1Cc1ccc(Cl)nc1 [Thiacloprid],102,106,97.8,–,96.9,87.5,15.1
CC12CCC3=C4CCC(=O)C=C4CCC3C1CCC2(O)CC#N (stereo not given) [Dienogest],97.4,92.2,97.4,81.6,79,87,18.1
O=C([O-])C(F)(F)C(F)(F)C(F)(F)F [PFBA],96.7,86.3,95.9,42.8,90.2,84.9,18.6
CCCCOCCOCCOCc1cc2c(cc1CCC)OCO2 [Piperonyl-butoxide],125,88.2,75.2,66.7,88.9,–,22.7
CC(=O)N(CC(O)CN(C(C)=O)c1c(I)c(C(=O)NCC(O)CO)c(I)c(C(=O)NCC(O)CO)c1I)c1c(I)c(C(=O)NCC(O)CO)c(I)c(C(=O)NCC(O)CO)c1I (stereo not given) [Iodixanol],149,–,102,–,–,–,10.7
CC(O)(CS(=O)(=O)c1ccc(F)cc1)C(=O)Nc1ccc(C#N)c(C(F)(F)F)c1 (stereo not given) [Bicalutamid],–,102,100,97,94.3,95.2,18.6
Cn1sccc1=O [2-Methyl-4-isothiazolin-3-one],93.6,27,12,11,11.7,17,7.95
COP(=O)(OC)OC=C(Cl)Cl [Dichlorvos],34.5,39.6,63.4,47.3,60,87.4,16.8
O=C([O-])COCC[NH+]1CCN(C(c2ccccc2)c2ccc(Cl)cc2)CC1 (stereo not given) [Cetirizin],107,100,97.8,96.3,95.8,92.2,17.4
CCCOCC(=Nc1ccc(Cl)cc1C(F)(F)F)n1ccnc1 [Triflumizole],93.9,114,85.9,104,97.8,61.8,21.3
C[NH2+]C(C)C(=O)c1ccc(C)cc1 (stereo not given) [Mephedron (=4-Methylmethcathinon)],76.7,71.4,62.3,66.2,62.8,72.7,11.4
CN1COCN(Cc2cnc(Cl)s2)C1=N[N+](=O)[O-] [Thiamethoxam],100,105,98.4,93.9,96.3,94.2,12.2
O=C([O-])c1ccccc1Nc1cccc(C(F)(F)F)c1 [Flufenamic-Acid],101,103,130,106,87.9,–,21.6
O=C([O-])C[N-]S(=O)(=O)C(F)(F)C(F)(F)C(F)(F)C(F)(F)C(F)(F)C(F)(F)C(F)(F)C(F)(F)F [FOSAA],117,–,60.5,85.9,76.6,32.2,22.2
C[NH+]1CCCC1c1cccnc1 (stereo not given) [Nicotine],76.9,79.1,35.1,27.7,47.9,52.5,11.1
